Experimental data reported in patent publication US20100152215A1, “METHODS OF IDENTIFYING ACTIVATORS OF LYN KINASE” (MELIOR PHARMACEUTICALS I, INC., priority 2007, published 2010).

What was measured:
[1] = target: MAPKAP5 (Homo sapiens, UniProt Q8IW41); experiment: kinase screen for inhibition or activation; type: biochemical; conditions: 10 μM
Protocol: (§1) A kinase screen was conducted in which Compound 102 (10 μM) was screened against 49 kinases for inhibition or activation. Any kinase that was activated or inhibited by at least 20% was considered to be a significant effect. Of the 49 kinases screened, Lyn kinase was activated by 51%. In a repeat experiment, Lyn kinase activity was increased by 57%.

[2] = target: MET (Homo sapiens, UniProt P08581); experiment: kinase screen for inhibition or activation; type: biochemical; conditions: 10 μM
Protocol: as §1

[3] = target: MSK1 (Homo sapiens, UniProt O75582); experiment: kinase screen for inhibition or activation; type: biochemical; conditions: 10 μM
Protocol: as §1

[4] = target: MST2 (Homo sapiens, UniProt Q13188); experiment: kinase screen for inhibition or activation; type: biochemical; conditions: 10 μM
Protocol: as §1

[5] = target: PAK2 (Homo sapiens, UniProt Q13177); experiment: kinase screen for inhibition or activation; type: biochemical; conditions: 10 μM
Protocol: as §1

[6] = target: PDK1 (Homo sapiens, UniProt O15530); experiment: kinase screen for inhibition or activation; type: biochemical; conditions: 10 μM
Protocol: as §1

[7] = target: PKA (Homo sapiens, UniProt P17612); experiment: kinase screen for inhibition or activation; type: biochemical; conditions: 10 μM
Protocol: as §1

[8] = target: PKCb2 (Homo sapiens, UniProt P05771); experiment: kinase screen for inhibition or activation; type: biochemical; conditions: 10 μM
Protocol: as §1

[9] = target: PKCz (Homo sapiens, UniProt Q05513); experiment: kinase screen for inhibition or activation; type: biochemical; conditions: 10 μM
Protocol: as §1

[10] = target: PKD2 (Homo sapiens, UniProt Q9BZL6); experiment: kinase screen for inhibition or activation; type: biochemical; conditions: 10 μM
Protocol: as §1

[11] = target: Pim2 (Homo sapiens, UniProt Q9P1W9); experiment: kinase screen for inhibition or activation; type: biochemical; conditions: 10 μM
Protocol: as §1

[12] = target: ROCK2 (Homo sapiens, UniProt O75116); experiment: kinase screen for inhibition or activation; type: biochemical; conditions: 10 μM
Protocol: as §1

[13] = target: RSK1 (Homo sapiens, UniProt Q15418); experiment: kinase screen for inhibition or activation; type: biochemical; conditions: 10 μM
Protocol: as §1

[14] = target: SGK1 (Homo sapiens, UniProt O00141); experiment: kinase screen for inhibition or activation; type: biochemical; conditions: 10 μM
Protocol: as §1

[15] = target: Src (Homo sapiens, UniProt P12931); experiment: kinase screen for inhibition or activation; type: biochemical; conditions: 10 μM
Protocol: as §1

[16] = target: Syc (Homo sapiens, UniProt P43405); experiment: kinase screen for inhibition or activation; type: biochemical; conditions: 10 μM
Protocol: as §1

[17] = target: cKit (Homo sapiens, UniProt P10721); experiment: kinase screen for inhibition or activation; type: biochemical; conditions: 10 μM
Protocol: as §1

[18] = target: cRAF (Homo sapiens, UniProt P04049); experiment: kinase screen for inhibition or activation; type: biochemical; conditions: 10 μM
Protocol: as §1

[19] = system: p70S6K; experiment: kinase screen for inhibition or activation; type: biochemical; conditions: 10 μM; inhibition
Protocol: as §1

[20] = target: Lyn (h) (Homo sapiens, UniProt P07948); experiment: Lyn kinase activation, pre-incubation then standard radiometric assay; type: biochemical
[21] = target: unphosphorylated Lyn kinase (Homo sapiens, UniProt P07948); experiment: Z'-LYTE Kinase Assay Kit-Tyr Peptide-2 Lyn kinase activation assay; type: biochemical; conditions: for Fold-Activation: 30 μM vs DMSO; for % Phosphorylation of Substrate: 30 μM
Protocol: The following example was conducted to further optimize assay conditions for detecting Compound 102-mediated activation of Lyn kinase. The assays describe below utilize the Z′-LYTE™ Kinase Assay Kit-Tyr Peptide (Invitrogen, Carlsbad, Calif.). These assay systems were originally developed to detect inhibitors of various tyrosine kinases.
The assay system used was a non-radiometric assay utilizing the Z′-LYTE™ Kinase Assay Kit-Tyr Peptide-2 (Invitrogen, Carlsbad, Calif.) for detecting activity of Lyn kinase. Buffer components were altered as described below. The lyn kinase protein used in these studies was the unphosphorylated form of the protein. Concentrations of this unphosphorylated lyn protein ranged from 25 ng/mL to 300 ng/mL. The preincubation step was lengthened from 30 minutes to 60 minutes.
The Invitrogen Reaction Buffer was used for all studies. The following additions were made to this Reaction Buffer and tested separately and compared to Reaction Buffer alone: Modification 1: Reaction Buffer with 0.1% BSA; Modification 2: Reaction Buffer with 1 mM dithiothreitol; Modification 3: Reaction Buffer with 0.01% BSA, 1 mM dithiothreitol; and Modification 4: Reaction Buffer with 0.1% β-mercaptoethanol.

[22] = target: Lyn (Homo sapiens, UniProt P07948); conditions: 100 μM; ATP 0 to 800 μM
[23] = Modification 1: Reaction Buffer with 0.1% BSA
[24] = Modification 2: Reaction Buffer with 1 mM dithiothreitol
[25] = Modification 3: Reaction Buffer with 0.01% BSA, 1 mM dithiothreitol
[26] = Modification 4: Reaction Buffer with 0.1% β-mercaptoethanol

Chain of unphosphorylated Lyn kinase (P07948 whole entry): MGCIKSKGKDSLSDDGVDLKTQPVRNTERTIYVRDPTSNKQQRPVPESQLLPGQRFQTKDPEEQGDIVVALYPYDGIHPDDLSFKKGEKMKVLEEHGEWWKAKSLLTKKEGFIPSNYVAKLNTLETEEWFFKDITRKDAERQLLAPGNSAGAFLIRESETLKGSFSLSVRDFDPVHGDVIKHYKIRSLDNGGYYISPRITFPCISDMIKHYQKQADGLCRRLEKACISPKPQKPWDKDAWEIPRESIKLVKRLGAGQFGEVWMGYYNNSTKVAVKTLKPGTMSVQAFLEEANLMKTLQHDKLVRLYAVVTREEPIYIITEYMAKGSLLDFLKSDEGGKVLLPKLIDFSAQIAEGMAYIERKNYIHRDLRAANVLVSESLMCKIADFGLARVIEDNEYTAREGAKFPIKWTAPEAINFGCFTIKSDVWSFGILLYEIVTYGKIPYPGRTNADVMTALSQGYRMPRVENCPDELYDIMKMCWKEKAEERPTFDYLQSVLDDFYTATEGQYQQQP
Chain of Lyn (h) (P07948 whole entry): as above
Chain of Lyn (P07948 whole entry): as above
Chain of PKCz (Q05513 whole entry): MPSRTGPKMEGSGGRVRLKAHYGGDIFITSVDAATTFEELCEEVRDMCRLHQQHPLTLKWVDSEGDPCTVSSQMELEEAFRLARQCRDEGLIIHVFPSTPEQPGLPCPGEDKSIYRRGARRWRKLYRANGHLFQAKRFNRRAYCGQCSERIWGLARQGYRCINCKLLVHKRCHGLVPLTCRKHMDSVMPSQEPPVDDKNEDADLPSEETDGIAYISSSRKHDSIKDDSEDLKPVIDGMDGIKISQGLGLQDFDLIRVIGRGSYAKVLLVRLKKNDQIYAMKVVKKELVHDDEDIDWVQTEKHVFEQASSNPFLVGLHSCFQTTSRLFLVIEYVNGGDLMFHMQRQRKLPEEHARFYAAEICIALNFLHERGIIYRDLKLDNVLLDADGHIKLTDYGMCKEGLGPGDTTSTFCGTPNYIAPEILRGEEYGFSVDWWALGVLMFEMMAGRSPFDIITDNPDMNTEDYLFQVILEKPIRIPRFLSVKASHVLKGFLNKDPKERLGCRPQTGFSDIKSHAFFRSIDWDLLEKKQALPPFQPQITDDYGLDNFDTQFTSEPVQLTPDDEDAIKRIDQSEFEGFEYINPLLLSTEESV
Chain of cKit (P10721 26-976): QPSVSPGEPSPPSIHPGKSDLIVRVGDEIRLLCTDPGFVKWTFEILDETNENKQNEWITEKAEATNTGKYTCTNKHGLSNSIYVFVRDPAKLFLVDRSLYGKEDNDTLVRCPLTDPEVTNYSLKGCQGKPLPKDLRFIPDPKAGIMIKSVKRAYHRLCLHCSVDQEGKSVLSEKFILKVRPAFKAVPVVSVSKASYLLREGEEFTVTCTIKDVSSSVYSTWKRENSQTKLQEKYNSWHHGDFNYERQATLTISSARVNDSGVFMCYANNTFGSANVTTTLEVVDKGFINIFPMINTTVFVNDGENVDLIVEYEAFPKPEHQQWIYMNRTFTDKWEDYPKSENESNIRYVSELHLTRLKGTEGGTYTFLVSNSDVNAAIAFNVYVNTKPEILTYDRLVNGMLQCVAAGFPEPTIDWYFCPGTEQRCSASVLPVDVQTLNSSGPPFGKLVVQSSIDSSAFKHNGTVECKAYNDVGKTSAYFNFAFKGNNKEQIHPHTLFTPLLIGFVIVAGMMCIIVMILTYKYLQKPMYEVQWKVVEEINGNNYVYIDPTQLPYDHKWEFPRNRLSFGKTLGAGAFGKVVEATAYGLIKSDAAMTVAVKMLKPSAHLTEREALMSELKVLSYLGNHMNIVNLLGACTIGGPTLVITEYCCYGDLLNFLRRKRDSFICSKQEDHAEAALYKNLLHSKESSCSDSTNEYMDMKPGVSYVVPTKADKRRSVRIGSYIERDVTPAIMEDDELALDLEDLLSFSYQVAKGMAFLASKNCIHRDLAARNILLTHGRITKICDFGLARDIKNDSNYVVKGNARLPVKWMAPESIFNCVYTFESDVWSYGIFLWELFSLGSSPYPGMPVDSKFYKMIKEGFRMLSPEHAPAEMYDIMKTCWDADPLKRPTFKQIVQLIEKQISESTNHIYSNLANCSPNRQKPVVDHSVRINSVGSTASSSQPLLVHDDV
Chain of PKCb2 (P05771 1-673 isoform P05771-2): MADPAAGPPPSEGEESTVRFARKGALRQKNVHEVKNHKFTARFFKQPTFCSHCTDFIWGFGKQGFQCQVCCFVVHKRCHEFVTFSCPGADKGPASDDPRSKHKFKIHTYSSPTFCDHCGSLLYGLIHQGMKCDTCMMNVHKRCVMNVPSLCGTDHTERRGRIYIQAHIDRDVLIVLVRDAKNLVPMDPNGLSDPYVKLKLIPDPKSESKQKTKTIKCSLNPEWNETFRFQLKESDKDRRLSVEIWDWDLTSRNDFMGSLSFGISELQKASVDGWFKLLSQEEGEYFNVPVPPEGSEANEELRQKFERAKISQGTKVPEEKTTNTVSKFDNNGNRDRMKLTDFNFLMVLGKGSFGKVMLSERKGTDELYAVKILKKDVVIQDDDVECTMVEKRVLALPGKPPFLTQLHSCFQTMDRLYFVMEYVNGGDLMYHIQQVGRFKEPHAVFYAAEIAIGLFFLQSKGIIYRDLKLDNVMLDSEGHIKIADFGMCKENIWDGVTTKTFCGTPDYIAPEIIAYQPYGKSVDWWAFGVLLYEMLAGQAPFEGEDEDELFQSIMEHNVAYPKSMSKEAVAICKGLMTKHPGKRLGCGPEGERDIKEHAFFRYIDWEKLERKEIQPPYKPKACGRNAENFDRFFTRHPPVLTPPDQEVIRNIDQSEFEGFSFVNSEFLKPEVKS
Chain of SGK1 (O00141 whole entry, species assumed): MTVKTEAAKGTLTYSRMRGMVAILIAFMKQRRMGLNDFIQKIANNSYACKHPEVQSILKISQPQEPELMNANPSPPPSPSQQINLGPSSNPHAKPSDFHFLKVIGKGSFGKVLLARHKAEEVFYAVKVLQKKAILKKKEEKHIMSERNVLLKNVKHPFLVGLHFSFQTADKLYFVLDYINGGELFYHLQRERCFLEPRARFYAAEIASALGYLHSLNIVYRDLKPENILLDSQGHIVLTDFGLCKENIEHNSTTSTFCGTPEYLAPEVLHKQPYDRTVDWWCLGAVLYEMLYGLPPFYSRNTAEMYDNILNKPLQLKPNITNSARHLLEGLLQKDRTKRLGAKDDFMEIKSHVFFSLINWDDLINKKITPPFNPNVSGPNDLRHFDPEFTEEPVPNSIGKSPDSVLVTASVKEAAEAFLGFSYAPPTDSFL
Chain of PAK2 (Q13177 whole entry, species assumed): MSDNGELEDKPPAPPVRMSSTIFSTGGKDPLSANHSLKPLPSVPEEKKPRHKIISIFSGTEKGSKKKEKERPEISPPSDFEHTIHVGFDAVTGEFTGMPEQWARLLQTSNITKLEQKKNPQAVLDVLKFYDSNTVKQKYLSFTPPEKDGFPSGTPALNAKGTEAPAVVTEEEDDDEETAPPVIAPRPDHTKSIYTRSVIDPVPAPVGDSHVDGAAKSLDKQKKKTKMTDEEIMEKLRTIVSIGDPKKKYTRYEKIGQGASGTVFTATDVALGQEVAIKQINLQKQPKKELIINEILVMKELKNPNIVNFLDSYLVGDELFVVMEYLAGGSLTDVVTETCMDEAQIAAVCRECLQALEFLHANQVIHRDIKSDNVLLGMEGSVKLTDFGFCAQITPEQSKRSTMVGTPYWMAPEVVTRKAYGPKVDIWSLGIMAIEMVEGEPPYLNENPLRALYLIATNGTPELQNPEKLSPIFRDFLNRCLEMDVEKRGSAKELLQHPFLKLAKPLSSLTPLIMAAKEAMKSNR
Chain of RSK1 (Q15418 whole entry, species assumed): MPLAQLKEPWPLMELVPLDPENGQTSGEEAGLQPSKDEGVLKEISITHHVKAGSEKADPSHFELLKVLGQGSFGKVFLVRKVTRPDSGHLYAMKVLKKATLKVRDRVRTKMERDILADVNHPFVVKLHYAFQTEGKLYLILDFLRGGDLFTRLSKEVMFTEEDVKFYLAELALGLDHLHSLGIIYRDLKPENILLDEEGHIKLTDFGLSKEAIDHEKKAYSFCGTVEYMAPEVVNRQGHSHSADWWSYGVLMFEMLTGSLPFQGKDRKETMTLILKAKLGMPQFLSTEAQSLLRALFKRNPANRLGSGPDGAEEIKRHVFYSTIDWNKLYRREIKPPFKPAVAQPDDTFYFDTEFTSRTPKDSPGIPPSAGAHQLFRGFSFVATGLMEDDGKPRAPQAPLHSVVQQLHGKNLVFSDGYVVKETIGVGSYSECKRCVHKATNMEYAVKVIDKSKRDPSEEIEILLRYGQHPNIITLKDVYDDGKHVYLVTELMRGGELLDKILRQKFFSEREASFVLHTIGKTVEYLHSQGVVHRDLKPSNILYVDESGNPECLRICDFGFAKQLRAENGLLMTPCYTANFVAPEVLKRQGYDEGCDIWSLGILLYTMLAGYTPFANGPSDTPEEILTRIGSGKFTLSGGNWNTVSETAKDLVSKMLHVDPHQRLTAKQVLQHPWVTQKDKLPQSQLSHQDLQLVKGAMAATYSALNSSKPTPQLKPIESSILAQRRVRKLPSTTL
Chain of MST2 (Q13188 whole entry, species assumed): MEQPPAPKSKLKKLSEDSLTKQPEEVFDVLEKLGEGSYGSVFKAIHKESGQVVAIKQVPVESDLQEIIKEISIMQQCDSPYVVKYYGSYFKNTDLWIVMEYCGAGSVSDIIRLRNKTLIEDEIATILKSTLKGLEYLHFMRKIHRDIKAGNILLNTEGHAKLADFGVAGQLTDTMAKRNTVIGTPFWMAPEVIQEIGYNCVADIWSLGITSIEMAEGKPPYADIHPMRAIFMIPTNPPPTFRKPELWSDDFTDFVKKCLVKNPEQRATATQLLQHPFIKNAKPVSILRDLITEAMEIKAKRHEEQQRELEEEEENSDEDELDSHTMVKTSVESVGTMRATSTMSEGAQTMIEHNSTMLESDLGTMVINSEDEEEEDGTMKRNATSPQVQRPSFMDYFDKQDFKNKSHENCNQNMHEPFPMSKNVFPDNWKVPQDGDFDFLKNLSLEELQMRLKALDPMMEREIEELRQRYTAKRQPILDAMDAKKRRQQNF

SMILES: Cc1cccc(Oc2cnc(=O)[nH]c2)c1 [Compound 102]
- COMPOUND 102 ACTIVITY (% KINASE ACTIVITY) [1]: 0.79%
- COMPOUND 102 ACTIVITY (% KINASE ACTIVITY) [2]: 9.88%
- COMPOUND 102 ACTIVITY (% KINASE ACTIVITY) [3]: 1.55%
- COMPOUND 102 ACTIVITY (% KINASE ACTIVITY) [4]: 4.59%
- COMPOUND 102 ACTIVITY (% KINASE ACTIVITY) [5]: 1.55%
- COMPOUND 102 ACTIVITY (% KINASE ACTIVITY) [6]: −2.63%
- COMPOUND 102 ACTIVITY (% KINASE ACTIVITY) [7]: −0.3%
- COMPOUND 102 ACTIVITY (% KINASE ACTIVITY) [8]: −1.12%
- COMPOUND 102 ACTIVITY (% KINASE ACTIVITY) [9]: 9.05%
- COMPOUND 102 ACTIVITY (% KINASE ACTIVITY) [10]: −10.34%
- COMPOUND 102 ACTIVITY (% KINASE ACTIVITY) [11]: −8.06%
- COMPOUND 102 ACTIVITY (% KINASE ACTIVITY) [12]: −3.05%
- COMPOUND 102 ACTIVITY (% KINASE ACTIVITY) [13]: 1.72%
- COMPOUND 102 ACTIVITY (% KINASE ACTIVITY) [14]: −19.24%
- COMPOUND 102 ACTIVITY (% KINASE ACTIVITY) [15]: 4.56%
- COMPOUND 102 ACTIVITY (% KINASE ACTIVITY) [16]: 11.12%
- COMPOUND 102 ACTIVITY (% KINASE ACTIVITY) [17]: 18.79%
- COMPOUND 102 ACTIVITY (% KINASE ACTIVITY) [18]: 5.08%
- p70S6K inhibited by [19]: 24.3%
- activity of Lyn kinase (h) relative to the DMSO control ([20]; 100 μM, 30 minutes pre-incubation on ice, 10 μM ATP, 40 minutes at room temperature): more than 3 fold
- concentration dependence of Lyn kinase (h) activity ([20]; 1, 3, 10, 30 and 100 μM): increased with Compound 102 concentration in a dose-dependent manner
- EC50 ([20]; 30 minutes pre-incubation on ice, 10 μM ATP): 650 nM
- Fold-Activation [21, 23]: 1.1 fold
- Fold-Activation [21, 24]: 1.2 fold
- Fold-Activation [21, 25]: 1.6 fold
- Fold-Activation [21, 26]: 2.4 fold
- Fold-Activation ([21]; Reaction Buffer): 1.6 fold
- % Phosphorylation of Substrate [21, 23]: 33.6%
- % Phosphorylation of Substrate [21, 24]: 80.9%
- % Phosphorylation of Substrate [21, 25]: 83.4%
- % Phosphorylation of Substrate [21, 26]: 33.3%
- % Phosphorylation of Substrate ([21]; Reaction Buffer): 16.2%
- effect on the Km for ATP [22]: did not alter the Km for ATP
- increase of the Vmax of Lyn kinase [22]: 3 fold
